Assay results from article PMC8230565, “Bisavenathramide Analogues as Nrf2 Inductors and Neuroprotectors in In Vitro Models of Oxidative Stress and Hyperphosphorylation” (Antioxidants, 2021).

How the values were obtained:
Assay type in all cases: cell-based
[1] = system: neuroblastoma SHSY5Y cells; test: Cytotoxicity in SHSY5Y cells (MTT reduction); conditions: for LD50: MTT reduction
Method: SH-SY5Y cells (ECACC 94030304, Porton Down, Salisbury, UK), from passages between 4 and 16 after defreezing, were maintained in a MEM/F12 containing […] nonessential amino acids and supplemented with 10% fetal bovine serum (FBS), glutamine 1 mM, 50 units/mL of penicillin, and 50 μg/mL of streptomycin (GIBCO, Madrid, Spain). Cells were harvested in a […] flask and incubated at 37 °C with wet atmosphere and 5% CO2, carrying out passages 1:4 twice a week. For neuroprotection experiments, cells were seeded in 96-well plates at a density of 60,000 cells/well. For the toxicity experiments, cells were treated with the compounds under assay before reaching confluence, in MEM/F12 with 1% FBS.
Due to their presumed electrophilicity, the neurotoxicity of our compounds was investigated by investigating their influence on cell viability in the neuroblastoma SHSY5Y cell line prior to other studies in cell cultures. […] It is relevant to note that, despite their reputation for toxicity, interest in covalent drugs has undergone a renaissance, and about 30% of the recently marketed drugs belong to this class.

Nrf2 = Nrf2 induction, luciferase assay in AREc32 cells; conditions: Arec32, 24 h, read-out: CD (concentration that doubles luciferase activity)
Method: AREc32 cells (kindly shared by Dr. Professor Ronald C. Wolf, University of Dundee, Dundee, UK) were grown in Dulbecco’s modified Eagle medium (DMEM) with glutamax, supplemented with 10% fetal bovine serum (FBS), 1% of antibiotics penicillin–streptomycin, and geneticin (0.8 mg/mL, G418) (GIBCO, Madrid, Spain). Cells were harvested in a […] flask with 11 mL of the specified medium, incubated at 37 °C and 5% CO2, and they were transferred to a new flask every 4–6 days, when the confluence was around 80%. Cells were seeded in 96-well white plates (20,000 cells/well) using 100 μL/well. After 24 h, cells were treated with compounds at desired concentrations (1, 5, 10, 15 μM) for 24 h, including tert-butyl hydroquinone (TBHQ, 10 μM) as a positive control. Another 24 h later, luciferase activity was measured through a bioluminescence assay using a “Luciferase assay system” (Promega E1500, Madison, WI, USA), following the protocol given by the provider, and quantifying luminescence in an Orion II microplate luminometer (Berthold, Germany). Measurements were performed by duplicate, and the values were normalized to basal luminescence considered as 1. Nrf2 induction potency was expressed as CD values, i.e., the concentrations required to double the luciferase activity, and are calculated from dose–response curves generated by plotting fold induction of control conditions vs. compound concentration, and fitted by non-linear regression and data interpolated to value 2.
The ability of our compounds to induce Nrf2 was evaluated in the AREc32 cell line, an MCF7 stable clone that is transfected with eight copies of the luciferase reporter gene immediately after the ARE sequence. Therefore, Nrf2 activation and the subsequent transcription of the genes dependent on the ARE element also leads to expression of luciferase, which can be quantitated using a luminescence assay. AREc32 cells were incubated for 24 h with 0.3, 3, 10, 30, and 60 μM concentrations of compounds 3, and a luminescence measurement allowed CD values to be obtained. This parameter characterizes the Nrf2-inducing ability of each compound and represents the concentration required to double the luciferase activity compared to its basal expression.

SH-SY5Y cells [2] = test: Neuroprotection against rotenone/oligomycin A in SH-SY5Y cells (MTT); conditions: Homo sapiens, 24 h, 1 µM compound, rotenone 30 µM + oligomycin A 10 µM, read-out: % Neuroprotection ± SEM at 1 µM (rotenone/oligomycin A)
Method: To evaluate the compounds for their neuroprotective effect in an oxidative stress model, we selected the rotenone (30 μM) and oligomycin A (10 μM) (R/O) cocktail, which disturbs the flow of electrons in the mitochondrial respiratory chain. Similarly, SH-SY5Y cells were preincubated with compounds 3 at 1 μM for 24 h. Then, they were co-incubated in the presence of R/O for a further 24 h, evaluating cell viability by the MTT reduction method.
Thus, the R/O combination constitutes a good model of oxidative stress and neurodegeneration with a mitochondrial origin, and has been broadly employed to evaluate potential hit compounds for the treatment of neurodegenerative diseases. Furthermore, treatment of laboratory animals with rotenone is known to induce many features associated to Parkinson’s disease, such as selective nigrostriatal dopaminergic degeneration and the appearance of α-synuclein cytoplasmic inclusions, which are associated with oxidative damage.

SH-SY5Y cells [3] = test: Superoxide production (DHE) in SH-SY5Y cells under R/O; conditions: 1 and 10 µM
Method: To evaluate superoxide production, we used the fluorescent dye dihydroethidium (DHE). SH-SY5Y cells were seeded in 96-well clear-bottom black plates (6 × 10^4 cells/well). After 24 h, cells were treated with compound 3i at the desired concentrations for 24 h. Thereafter, treatments were eliminated and cells were loaded with DHE (20 μM) for 45 min. […] Fluorescence was evaluated in a Nikon T1000 fluorescence microscope at 490/630 excitation/emission wavelengths, respectively. Images were quantitated using Fiji software, and data are expressed as the increase after 6 h exposure to ROS generator, normalized to basal conditions as 100% increase.
To further evaluate its mechanism of action, and considering the importance of exacerbated oxidative stress in neurodegenerative diseases, we evaluated its capacity to reduce free radical species production using the above-mentioned R/O toxic combination to generate ROS and measure the influence of 3i in the total ROS production by using the H2DCFDA dye, and also the specific superoxide production by using the selective dye dihydroetidium (DHE). […] This reduction might be related to a combination of direct scavenger effect and an increased expression of Nrf2-dependent antioxidant genes, such as HO-1.

| Compound | toxicity assessment [1] | LD50 [1] | EC (2-fold luciferase activity) (Nrf2) | % neuroprotection against rotenone/oligomycin A toxicity at 1 µM (SH-SY5Y cells [2]) | superoxide production (DHE) (SH-SY5Y cells [3]) |
| --- | --- | --- | --- | --- | --- |
| COC(=O)C1=C(C)N(Cc2ccccc2)C(=O)/C1=C\c1ccccc1 [Compound 3a, Methyl (Z)-1-Benzyl-4-benzylidene-2-methyl-5-oxo-4,5-dihydro-1H-pyrrole-3-carboxylate] | too toxic | 63.7 ± 12.8 µM | 30.2 ± 1.89 µM | 44.3 ± 13.6% |  |
| COC(=O)C1=C(C)N(Cc2ccccc2)C(=O)/C1=C\c1ccc(OC)cc1 [Compound 3b, Methyl (Z)-1-Benzyl-4-(4-methoxybenzylidene)-2-methyl-5-oxo-4,5-dihydro-1H-pyrrole-3-carboxylate] |  | >100 µM | 18 ± 1.84 µM | 68 ± 31.5% |  |
| COC(=O)C1=C(C)N(Cc2ccccc2)C(=O)/C1=C\c1ccc(Cl)cc1 [Compound 3c, Methyl (Z)-1-Benzyl-4-(4-chlorobenzylidene)-2-methyl-5-oxo-4,5-dihydro-1H-pyrrole-3-carboxylate] | too toxic |  | 15 ± 0.8 µM | > 90% |  |
| COC(=O)C1=C(C)N(CCc2ccccc2)C(=O)/C1=C\c1ccc2c(c1)OCO2 [Compound 3d, Methyl (Z)-4-(Benzo[d](1,3)dioxol-5-ylmethylene)-2-methyl-5-oxo-1-phenethyl-4,5-dihydro-1H-pyrrole-3-carboxylate] |  | >100 µM | 17.9 ± 8.58 µM | 49.8 ± 9.46% |  |
| COC(=O)C1=C(C)N(CCc2ccccc2)C(=O)/C1=C\c1ccc(OC)cc1OC [Compound 3e, Methyl (Z)-4-(2,4-Dimethoxybenzylidene)-2-methyl-5-oxo-1-phenethyl-4,5-dihydro-1H-pyrrole-3-carboxylate] |  | >100 µM | 10.4 ± 0.8 µM | 50.3 ± 16.3% |  |
| COC(=O)C1=C(C)N(CCc2ccccc2)C(=O)/C1=C\c1cc(OC)c(OC)cc1OC [Compound 3f, Methyl (Z)-2-Methyl-5-oxo-1-phenethyl-4-(2,4,5-trimethoxybenzylidene)-4,5-dihydro-1H-pyrrole-3-carboxylate] |  | >100 µM | 31.1 ± 6.21 µM | 51 ± 16.9% |  |
| COC(=O)C1=C(C)N(CCc2ccccc2)C(=O)/C1=C\c1cc(OC)c(OC)c(OC)c1 [Compound 3g, Methyl (Z)-2-Methyl-5-oxo-1-phenethyl-4-(3,4,5-trimethoxybenzylidene)-4,5-dihydro-1H-pyrrole-3-carboxylate] |  | >100 µM |  | 74.5 ± 7.19% |  |
| COC(=O)C1=C(C)N(CCc2ccccc2)C(=O)/C1=C\c1ccc(OC)c(O)c1 [Compound 3h, Methyl (Z)-4-(3-Hydroxy-4-methoxybenzylidene)-2-methyl-5-oxo-1-phenethyl-4,5-dihydro-1H-pyrrole-3-carboxylate] |  | >100 µM | 36.1 ± 418 µM | 46.2 ± 18.9% |  |
| COC(=O)C1=C(C)N(CCc2ccccc2)C(=O)/C1=C\c1ccc(O)c(O)c1 [Compound 3i, Methyl (Z)-4-(3,4-Dihydroxybenzylidene)-2-methyl-5-oxo-1-phenethyl-4,5-dihydro-1H-pyrrole-3-carboxylate] | suitable toxicity profile | 92.8 ± 4.6 µM | < 10 µM | > 90% | reduce superoxide production at both concentrations |
| COC(=O)C1=C(C)N(CCc2ccccc2)C(=O)/C1=C\c1ccc(OCc2ccccc2F)c(OC)c1 [Compound 3j, Methyl (Z)-4-[4-((2-Fluorobenzyl)oxy)-3-methoxybenzylidene]-2-methyl-5-oxo-1-phenethyl-4,5-dihydro-1H-pyrrole-3-carboxylate] |  | >100 µM | 11.9 ± 2.83 µM | 51.2 ± 15.5% |  |
| COC(=O)C1=C(C)N(CCc2ccccc2)C(=O)/C1=C\c1ccc(OCc2ccccc2Cl)c(OC)c1 [Compound 3k, Methyl (Z)-4-[4-((2-Chlorobenzyl)oxy)-3-methoxybenzylidene]-2-methyl-5-oxo-1-phenethyl-4,5-dihydro-1H-pyrrole-3-carboxylate] |  | >100 µM | < 10 µM | 60.3 ± 20.9% |  |
| COC(=O)C1=C(C)N(CCc2ccccc2)C(=O)/C1=C\c1ccc(OCc2ccc(Cl)cc2)c(OC)c1 [Compound 3l, Methyl (Z)-4-[4-((4-Chlorobenzyl)oxy)-3-methoxybenzylidene]-2-methyl-5-oxo-1-phenethyl-4,5-dihydro-1H-pyrrole-3-carboxylate] |  | >100 µM | 14 ± 4.45 µM | 79.8 ± 8.28% |  |
| COC(=O)C1=C(C)N(CCc2ccc(OC)c(OC)c2)C(=O)/C1=C\c1ccc(OCc2ccc(Cl)cc2)c(OC)c1 [Compound 3m, Methyl (Z)-4-[4-((4-Chlorobenzyl)oxy)-3-methoxybenzylidene]-1-(3,4-dimethoxyphenethyl)-2-methyl-5-oxo-4,5-dihydro-1H-pyrrole-3-carboxylate] |  | >100 µM | 21.4 ± 5.72 µM | 41.2 ± 18.9% |  |
| COC(=O)C1=C(C)N(CCc2ccc(OC)c(OC)c2)C(=O)/C1=C\c1ccc(OCc2ccccc2Cl)c(OC)c1 [Compound 3n, Methyl (Z)-4-[4-((2-Chlorobenzyl)oxy)-3-methoxybenzylidene]-1-(3,4-dimethoxyphenethyl)-2-methyl-5-oxo-4,5-dihydro-1H-pyrrole-3-carboxylate] |  | >100 µM | 14.3 ± 3.89 µM | 69.4 ± 23.9% |  |
| COC(=O)C1=C(C)N(CCc2ccccc2)C(=O)/C1=C\c1c[nH]c2ccccc12 [Compound 3o, Methyl (Z)-4-((1H-Indol-3-yl)methylene)-2-methyl-5-oxo-1-phenethyl-4,5-dihydro-1H-pyrrole-3-carboxylate] |  | >100 µM | 36 ± 10.6 µM | > 90% |  |
